Values after ≈ are worked out from the molar mass of the structure shown. Where two headings read alike, the source gives them in different places.
Legend:
[1] = tested on: Pseudomonas aeruginosa (PRD-10); test: MIC in nutrient agar, Pseudomonas aeruginosa (PRD-10); type: cell-based, Pseudomonas aeruginosa (ATCC 15442); settings: PRD, 48 hours, read-out: Minimum Inhibitory Concentration (MIC)
Procedure: (§1) The minimum inhibitory concentration (MIC) for the compounds listed in Table I is determined for bacteria, using nutrient agar, and 7 yeast and fungi, using malt yeast agar. A one percent solution of the test compound is prepared in a mixture of acetone and water.
(§2) Nutrient agar is prepared at pH 6.8, representing a neutral medium, and at pH 8.2, representing an alkaline medium. The nutrient agars are prepared by adding 23 g of nutrient agar to one-liter of deionized water. In addition, the alkaline medium is prepared by adjusting a 0.04M solution of N-(tris-(hydroxymethyl)methyl)glycine buffered deionized water with concentrated sodium hydroxide to a pH of 8.5.
(§3) The test tubes containing the agar are cooled in a water bath until the temperature of the agar is 48° C. Then, an appropriate amount of the one percent solution of the test compound is added (except in the controls where no compound is added) to the respective test tubes so that the final concentrations are 500, 250, 100, 50, 25, 10, 2.5, 1.0 and zero parts per million of the test compound in the agar, thus having a known concentration of test compound dispersed therein. The contents of the test tubes are then transferred to respective petri plates. After drying for 24 hours, the petri plates containing nutrient agar are inoculated with bacteria and those containing malt yeast agar are inoculated with yeast and fungi.
(§4) The inoculation with bacteria is accomplished by using the following procedure. Twenty-four hour-cultures of each of the bacteria are prepared by incubating the respective bacteria in tubes containing nutrient broth for 24 hours at 30° C. in a shaker. Dilutions of each of the 24 hour-cultures are made so that nine separate suspensions (one for each of the nine test bacteria) are made, each containing 10^8 colony forming units (CFU) per mL of suspension of a particular bacteria. Aliquots of 0.3 mL of each of the bacterial suspensions are used to fill the individual wells of Steer's Replicator. For each microbial suspension, 0.3 mL was used to fill three wells (i.e., three wells of 0.3 mL each) so that for the nine different bacteria, 27 wells are filled. The Steer's Replicator is then used to inoculate both the neutral and alkaline pH nutrient agar petri plates.
(§5) The inoculated petri plates are incubated at 30° C. for 48 hours and then read to determine if the test compound which is incorporated into the agar prevented growth of the respective bacteria.
(§6) Table II lists the bacteria, yeast and fungi used in the MIC test described above along with their respective American Type Culture Collection (ATCC) identification numbers.
(§7) In Tables III and IV, the MIC values of the compounds described in Table I as compared to the MIC of a standard commercial preservative (with 1-(3-chloroalkyl)-3,5,7-triaza-1-azoniaadamantane chloride as the active agent and referred to in Tables III and IV as "STANDARD I") are set forth for the bacteria organisms and yeast/fungi organisms which are listed in Table II.

[2] = tested on: Enterobacter aerogenes; test: MIC in nutrient agar, Enterobacter aerogenes; type: cell-based, Enterobacter aerogenes (ATCC 13048); settings: Klebsiella aerogenes, Ea, 30° C., 48 hours, read-out: Minimum Inhibitory Concentration (MIC)
Procedure: as §1, §2, §3, §4, §5, §6, §7

[3] = tested on: Klebsiella pneumonias; test: MIC in nutrient agar, Klebsiella pneumonias; type: cell-based, Klebsiella pneumonias (ATCC 8308); settings: Kp, 48 hours, read-out: Minimum Inhibitory Concentration (MIC)
Procedure: as §1, §2, §3, §4, §5, §6, §7

[4] = tested on: Pseudomonas aeruginosa; test: MIC in nutrient agar, Pseudomonas aeruginosa (Pa); type: cell-based, Pseudomonas aeruginosa (ATCC 10145); settings: Pa, 48 hours, read-out: Minimum Inhibitory Concentration (MIC)
Procedure: as §1, §2, §3, §4, §5, §6, §7

[5] = tested on: Trichoderma viride; test: MIC in malt yeast agar, Trichoderma viride; type: cell-based, Trichoderma viride (ATCC 8678); settings: Tv; malt yeast agar; 30° C.; 72 hours for fungi; read-out: Minimum Inhibitory Concentration (MIC)
Procedure: as §1
(§8) Malt yeast agar is prepared by adding 3 g yeast extract and 45 g malt agar per liter of deionized water. The specific agar is dispensed in 30 mL aliquots into 25×200 mm test tubes, capped and autoclaved for 15 minutes at 115° C.
as §3
(§9) The inoculation with the yeast and fungi is accomplished as follows. Cultures of yeast and fungi are incubated for seven days on malt yeast agar at 30° C. These cultures are used to prepare suspensions by the following procedure. A suspension of each organism is prepared by adding 10 mL of sterile saline and 10 microliters of octylphenoxy polyethoxy ethanol to the agar slant of yeast or fungi. The sterile saline/octylphenoxy polyethoxy ethanol solution is then agitated with a sterile swab to suspend the microorganism grown on the slant. Each resulting suspension is diluted into sterile saline (1 part suspension: 9 parts sterile saline). Aliquots of these dilutions are placed in individual wells of Steer's Replicator and petri plates inoculated as previously described. The petri plates are incubated at 30° C. and read after 48 hours for yeast and 72 hours for fungi.
as §6, §7

[6] = tested on: Saccharomyces cerevisiae; test: MIC in malt yeast agar, Saccharomyces cerevisiae; type: cell-based, Saccharomyces cerevisiae (ATCC 4105); settings: Sc, malt yeast agar, 30° C., 48 hours for yeast, read-out: Minimum Inhibitory Concentration (MIC)
Procedure: as §1, §8, §3, §9, §6, §7

[7] = tested on: Aureobasidium pullulan; test: MIC in malt yeast agar, Aureobasidium pullulan; type: cell-based, Aureobasidium pullulan (ATCC 16622); settings: Ap; malt yeast agar; 30° C.; 72 hours for fungi; read-out: Minimum Inhibitory Concentration (MIC)
Procedure: as §1, §8, §3, §9, §6, §7

[8] = tested on: Staphylococcus aureus; test: MIC in nutrient agar, Staphylococcus aureus; type: cell-based, Staphylococcus aureus (ATCC 6538); settings: Sa, 48 hours, read-out: Minimum Inhibitory Concentration (MIC)
Procedure: as §1, §2, §3, §4, §5, §6, §7

[9] = tested on: Salmonella choleraesuis; test: MIC in nutrient agar, Salmonella choleraesuis; type: cell-based, Salmonella choleraesuis (ATCC 10708); settings: Salmonella enterica, Sc, 48 hours, read-out: Minimum Inhibitory Concentration (MIC)
Procedure: as §1, §2, §3, §4, §5, §6, §7

[10] = tested on: Penicillium chrysogenum; test: MIC in malt yeast agar, Penicillium chrysogenum; type: cell-based, Penicillium chrysogenum (ATCC 9480); settings: Pc; malt yeast agar; 30° C.; 72 hours for fungi; read-out: Minimum Inhibitory Concentration (MIC)
Procedure: as §1, §8, §3, §9, §6, §7

[11] = tested on: Escherichia coli; test: MIC in nutrient agar, Escherichia coli; type: cell-based, Escherichia coli (ATCC 11229); settings: Ec, 48 hours, read-out: Minimum Inhibitory Concentration (MIC)
Procedure: as §1, §2, §3, §4, §5, §6, §7

[12] = tested on: Bacillus subtilis; test: MIC in nutrient agar, Bacillus subtilis; type: cell-based, Bacillus subtilis (ATCC 8473); settings: Bs, 48 hours, read-out: Minimum Inhibitory Concentration (MIC)
Procedure: as §1, §2, §3, §4, §5, §6, §7

[13] = tested on: Fusarium oxysporum; test: MIC in malt yeast agar, Fusarium oxysporum; type: cell-based, Fusarium oxysporum (ATCC 48112); settings: Fo; malt yeast agar; 30° C.; 72 hours for fungi; read-out: Minimum Inhibitory Concentration (MIC)
Procedure: as §1, §8, §3, §9, §6, §7

[14] = tested on: Aspergillus niger; test: MIC in malt yeast agar, Aspergillus niger; type: cell-based, Aspergillus niger (ATCC 16404); settings: An; malt yeast agar; 30° C.; 72 hours for fungi; read-out: Minimum Inhibitory Concentration (MIC)
Procedure: as §1, §8, §3, §9, §6, §7

[15] = tested on: Candida albicans; test: MIC in malt yeast agar, Candida albicans; type: cell-based, Candida albicans (ATCC 10231); settings: Ca; malt yeast agar; 30° C.; 48 hours for yeast; read-out: Minimum Inhibitory Concentration (MIC)
Procedure: as §1, §8, §3, §9, §6, §7

[16] = tested on: Proteus vulgaris; test: MIC in nutrient agar, Proteus vulgaris; type: cell-based, Proteus vulgaris (ATCC 881); settings: Pv, 48 hours, read-out: Minimum Inhibitory Concentration (MIC)
Procedure: as §1, §2, §3, §4, §5, §6, §7

| Compound | MIC ([1]; pH 6.8, 30° C.) [µg/mL] | MIC ([2]; pH 6.8) [µg/mL] | MIC ([3]; pH 6.8, 30° C.) [µg/mL] | MIC ([4]; pH 6.8, 30° C.) [µg/mL] | MIC [5] [µg/mL] | MIC [6] [µg/mL] | MIC [7] [µg/mL] | MIC ([8]; pH 6.8, 30° C.) [µg/mL] | MIC ([9]; pH 6.8, 30° C.) [µg/mL] | MIC [10] [µg/mL] | MIC ([11]; pH 6.8, 30° C.) [µg/mL] | MIC ([12]; pH 6.8, 30° C.) [µg/mL] | MIC [13] [µg/mL] | MIC [14] [µg/mL] | MIC [15] [µg/mL] | MIC ([16]; pH 6.8, 30° C.) [µg/mL] | MIC ([1]; pH 8.2, 30° C.) [µg/mL] | MIC ([2]; pH 8.2) [µg/mL] | MIC ([3]; pH 8.2, 30° C.) [µg/mL] | MIC ([4]; pH 8.2, 30° C.) [µg/mL] | also measured |
| --- | --- | --- | --- | --- | --- | --- | --- | --- | --- | --- | --- | --- | --- | --- | --- | --- | --- | --- | --- | --- | --- |
| COc1nsnc1OCSC#N [Example 7, 4-Methoxy-3-thiocyanato-methyloxo-1,2,5-thiadiazole] | 25 (≈ 123 µM) | 25 (≈ 123 µM) | < 10 | < 10 | 25 (≈ 123 µM) | < 10 | < 10 | < 10 | 25 (≈ 123 µM) | < 10 | 25 (≈ 123 µM) | < 10 | < 10 | < 10 | 25 (≈ 123 µM) | < 10 | – | – | – | – | – |
| N#CSCOc1nsnc1Cl [Example 6, 4-Chloro-3-thiocyanato-methyloxo-1,2,5-thiadiazole] | 100 (≈ 482 µM) | 50 (≈ 241 µM) | 25 (≈ 120 µM) | 50 (≈ 241 µM) | 25 (≈ 120 µM) | < 10 | < 10 | 25 (≈ 120 µM) | < 10 | < 10 | 25 (≈ 120 µM) | < 10 | < 10 | < 10 | < 10 | < 10 | 100 (≈ 482 µM) | 50 (≈ 241 µM) | 25 (≈ 120 µM) | 50 (≈ 241 µM) | MIC ([8]; pH 8.2, 30° C.): 25 µg/mL (≈ 120 µM); MIC ([9]; pH 8.2, 30° C.): 25 µg/mL (≈ 120 µM); MIC ([11]; pH 8.2, 30° C.): 25 µg/mL (≈ 120 µM); MIC ([12]; pH 8.2, 30° C.): 25 µg/mL (≈ 120 µM); MIC ([16]; pH 8.2, 30° C.): 25 µg/mL (≈ 120 µM) |
| N#CSCCSc1nsnc1SCCSC#N [Example 5, Bis(thioethylthiocyanato)-1,2,5-thiadiazole] | > 500 | > 500 | > 500 | > 500 | > 500 | < 10 | < 10 | > 500 | > 500 | < 10 | > 500 | > 500 | 250 (≈ 780 µM) | < 10 | 100 (≈ 312 µM) | > 500 | > 500 | > 500 | > 500 | > 500 | MIC ([8]; pH 8.2, 30° C.): > 500 µg/mL; MIC ([9]; pH 8.2, 30° C.): > 500 µg/mL; MIC ([11]; pH 8.2, 30° C.): > 500 µg/mL; MIC ([12]; pH 8.2, 30° C.): > 500 µg/mL; MIC ([16]; pH 8.2, 30° C.): > 500 µg/mL |
